{
  "source": "patent US20220088010A1",
  "about": "“Co-Administration of inhibitors to produce insulin producing gut cells” (The Trustees of Columbia University in the City of New York, priority 2019, published 2022)",
  "key": {"Gut Ins+ cells": {"tested_on": "Gut Ins+ cells", "assay": "Insulin secretion by Gut Ins+ cells, block by diazoxide"}, "[1]": {"tested_on": "gut cells of Foxo1 knockout mice", "assay": "Oral gavage of ROCK inhibitor Y-27632 in Foxo1 knockout mice; intestine immunohistochemistry", "type": "in vivo, mouse", "conditions": "for number of insulin-positive cells in Foxo1 knockout mice not treated with ROCKi relative to those treated: Y-27632 oral gavage q.d. 2 days, FIG. 17, dihydrochloride", "text": "The experiment consisted of treating 8-week-old mice (Foxo1 knockout mice) by oral gavage dosing of Y-27632, q.d., for 2 days. On day 3, mice were sacrificed and the intestine analyzed for enteroendocrine cell content using immunohistochemistry. The arrows in FIGS. 15 and 16 represent c-peptide and insulin-positive cells, which resemble true beta-like cells."}, "[2]": {"tested_on": "intestine enteroendocrine cells of Foxo1 heterozygous knockouts", "assay": "Co-treatment: DBZ with first dose of FBT9, then FBT9 3 days TID; intestine immunohistochemistry", "type": "in vivo, mouse", "conditions": "DBZ alone or FBT9 x3 days TID alone (FIG. 9)", "method": "FIG. 8 provides graphs showing the effect of co-treatment of FBT9 and DBZ (DBZ administered in conjunction with first dose of FBT9 followed by sequential administration of FBT9 3 days TID) on body weight and plasma glucose in Foxo1 heterozygous knockouts.\n(§1) The experiment consisted of performing surgery on 8-week-old mice to implant an enterojejujnal catheter to deliver drugs locally to the intestinal mucosa. After a 1-week recovery period, mice were treated with a single i.p. injection of DBZ or vehicle control.\n(§2) was initiated either on the same day or on the following day, t.i.d. by injection via enterojejunal catheter for 3 days. At the end of the experiment, mice were sacrificed and the intestine analyzed for enteroendocrine cell content using immunohistochemistry. […] The treatment regime of FIG. 10 involved administering the first dose of FBT9 with DBZ followed by subsequent doses of FBT9."}, "gut cells of NOD mice": {"tested_on": "gut cells of NOD mice", "assay": "FBT10 in NOD mice over 96 hr; gut micrographs", "type": "in vivo, mouse", "conditions": "96 hr period, FIG. 20", "method": "NOD mice (mouse model whose pancreatic beta cells are destroyed by immunological response) were treated with FBT10 or vehicle over a 96 hr period. […] Insulin-positive cells were not detected in the colon. FIG. 20 also provides graphs showing effects on body weight and blood glucose (each graph line represents an individual animal)"}, "[3]": {"tested_on": "Mouse gut organoid from a wild type mouse", "assay": "FBT10 treatment of mouse gut organoid, immunohistochemistry", "type": "cell-based", "conditions": "after 72 hrs of treatment; FIG. 18", "method": "Mouse gut organoid from a wild type mouse was treated with FBT10 (Compound 10, Langlet et al. 2017 Cell, see below)."}, "[4]": {"tested_on": "intestine enteroendocrine cells", "assay": "Co-administration of FBT10 (enterojejunal catheter) and DBZ (i.p.) in mice; intestine immunohistochemistry", "type": "in vivo, mouse", "conditions": "FBT10 t.i.d. 3 days with single i.p. DBZ; FIG. 19", "method": "The protocol used above in Example 1 was followed for testing a combination of FBT10 and DBZ. The experiment consisted of performing surgery on 8-week-old mice to implant an enterojejujnal catheter to deliver drugs locally to the intestinal mucosa. After a 1-week recovery period, mice were treated with a single i.p. injection of DBZ or vehicle control. Administration of Foxo1 inhibitor compound 10 (FBT10) was initiated either on the same day or on the following day, t.i.d. by injection via enterojejunal catheter for 3 days. At the end of the experiment, mice were sacrificed and the intestine analyzed for enteroendocrine cell content using immunohistochemistry. Regarding the graphs indicating effects on Body weight and blood glucose, each line represents an individual animal. […] No insulin-positive cells were found in vehicle treated duodenum or colon."}, "[5]": {"tested_on": "intestine enteroendocrine cells", "assay": "Initial DBZ i.p. followed by FBT9 via enterojejunal catheter (24 hrs after DBZ); intestine analyzed for enteroendocrine cell content by immunohistochemistry", "type": "in vivo, mouse", "conditions": "FBT9 from 24 hrs later", "method": "as §1, with “control. Administration of Foxo1 inhibitor compound 9 (Langlet et al. 2017 Cell, see below)” for “control.”\nas §2"}},
  "note": "Entries after “also recorded” stand apart in the source; their conditions may differ.",
  "data": [
    {"smiles": "CC1=NS(=O)(=O)c2cc(Cl)ccc2N1", "note": "[diazoxide]", "values": [
      {"measurement": "insulin secretion / release by Gut Ins+ cells", "setting": "Gut Ins+ cells", "result": "can be blocked; also recorded: can be shut off"}
    ]},
    {"smiles": "C[C@@H](N)[C@H]1CC[C@H](C(=O)Nc2ccncc2)CC1.Cl.Cl", "note": "[Y27632, (+)-(R)-trans-4-(1-aminoethyl)-N-(4-pyridyl)cyclohexanecarboxamide dihydrochloride]", "values": [
      {"measurement": "Epcam counterstain of insulin-positive cells", "setting": "[1]; Foxo1 knockout mice treated with ROCKi, FIG. 16", "result": "insulin-positive cells are epithelial"},
      {"measurement": "number of insulin-positive cells in Foxo1 knockout mice not treated with ROCKi relative to those treated", "setting": "[1]; listed as ROCK inhibitor", "result": "decreases dramatically"},
      {"measurement": "number of insulin-positive cells in Foxo1 knockout mice not treated with ROCKi relative to those treated", "setting": "[1]; listed as ROCKi", "result": "significantly lower"},
      {"measurement": "C-peptide staining of Ins+ cells in the gut", "setting": "[1]; homozygous Foxo1 knockout mice, FIG. 15", "result": "positive for C-peptide"}
    ]},
    {"smiles": "COc1ccc(C(=O)Nc2cc(-c3nc4ccccc4[nH]3)n[nH]2)cc1Cl", "note": "[FBT9, N-(3-(1H-benzo[d]imidazole-2-yl)-1H-pyrazol-5-yl)-3-chloro-4-methoxybenzamide]", "values": [
      {"measurement": "ins+ cells after individual treatment", "setting": "[2]", "result": "neither which produced ins+ cells"}
    ]},
    {"smiles": "CN1CCN(c2ccc(C(=O)Nc3cc(-c4nc5ccccc5[nH]4)n[nH]3)cc2)CC1", "note": "[FBT10, N-(3-(1H-benzo[d]imidazol-2-yl)-1H-pyrazol-5-yl)-4-(4-methylpiperazin-1-yl)benzamide]", "values": [
      {"measurement": "insulin-positive cells in the colon", "setting": "gut cells of NOD mice", "result": "not detected"},
      {"measurement": "insulin-positive cells in the jejunum", "setting": "gut cells of NOD mice", "result": "generated insulin-positive cells"},
      {"measurement": "insulin and serotonin (5HT) positive cells", "setting": "[3]", "result": "some of the cells turned into insulin and serotonin (5HT) positive cells"},
      {"measurement": "insulin-positive cells in duodenum and colon", "setting": "[4]", "result": "present in the duodenum and colon"}
    ]},
    {"smiles": "C[C@H](NC(=O)Cc1cc(F)cc(F)c1)C(=O)N[C@@H]1C(=O)N(C)c2ccccc2-c2ccccc21", "note": "[DBZ]", "values": [
      {"measurement": "number of Serotonin (5HT)-positive cells", "setting": "[5]", "result": "increased"},
      {"measurement": "number of Somatostatin-positive cells", "setting": "[5]", "result": "increased"},
      {"measurement": "number of Glp1-positive cells", "setting": "[5]; duodenum and jejunum", "result": "increased"},
      {"measurement": "ins+ cells after individual treatment", "setting": "[2]", "result": "neither which produced ins+ cells"}
    ]}
  ]
}
